Test results reported in patent US6387427B1, “Method of preservation of a food product” (Nestec S.A., priority 2000, dated 2002).

What was measured:
Type in all cases: cell-based
[1] = tested on: Gram-negative bacterial cocktail (3 E. Coli strains and 3 Salmonella strains); assay: Challenge test in mashed potato, Gram-negative cocktail; conditions: 12° C.; for Microbial growth: mashed potato pH 5.6, 0.5%
Description: (§1) Five hundred grams of mashed potato were added to 500 g of distilled water and mixed thoroughly. The pH of the mixture was adjusted to pH 5.6 with 1N HCl. Three separate samples of 300 g of mashed potato were added with respectively, 0.5 % commercial sodium acetate, 0.5% of freeze dried fermentate and a control with no acetate. The three mashed potato samples (respectively with commercial acetate, fermentate and control) were heated at 70° C. for 5 min in a microwave and then dispatched aseptically in separate aliquots of 30 g each. The pH of all samples was checked before inoculation. Triplicate samples of each the three mashed potato aliquots were inoculated with 10^3-10^4 colony forming units per gram (cfu/g) of Gram-negative bacterial cocktail (3 E. Coli strains and 3 Salmonella strains), or L. monocytogenes cocktail and incubated at 12° C. for 2 weeks. Periodically, samples were withdrawn and bacterial counts were enumerated using BHI agar and incubated at 30° C. for 48 hours.
To confirm the effectiveness of the two sources of sodium acetate against Gram-negative bacteria, a cocktail of Gram-negative bacteria was used in a challenge experiment in mashed potato.

[2] = tested on: Cocktail (L. monocytogenes, Bacillus cereus, Escherichia coli, S. typhimurium); assay: Challenge test in BHI broth, bacterial cocktail; conditions: for Bacterial growth (optical density 550 nm after 12 days): pH 5.6, 12° C.
Description: (§2) Commercial sodium acetate (Sigma) and the freeze-dried fermentate of the invention (pH 5.0) were tested in Brain Heart Infusion broth (BHI), using single and cocktail tests. BHI was added with:
(§3) (a) commercial sodium acetate at final concentrations of 0.25 and 0.5%;
(§4) (b) freeze dried fermentate (pH 5.0) at final concentrations of sodium acetate of 0.25 to 0.5%; and,
(§5) (c) a control sample consisted of BHI broth without sodium acetate.
(§6) For first samples, the pH of BHI broth with or without sodium acetate was adjusted to 5.6 with HCl (10%) and the samples filter-sterilized ([…], Millipore). For comparative samples, the pH was controlled at 7.0 and the sample filtered-sterilized.
(§7) The freeze-dried product was evaluated for its inhibitory actions against Gram-negative Gram-positive bacteria. Twenty-mL samples were inoculated with 10^4-10^5 cfu/mL of L. monocytogenes, B. cereus, E. coli, or S. typhimurium alone and combined. The samples were incubated at two conditions: at 30° C. for 24 h, and at 12° C. for 2 weeks.
(§8) The control samples consisted of samples with and without commercial sodium acetate.
An additional challenge test was carried out on the bacterial cocktail strains of Listeria monocytogenes, Escheriachia coli, Bacillus cereus, and Salmonella typhimurium.

[3] = tested on: challenge bacteria (L. monocytogenes, B. cereus, E. coli, S. typhimurium); assay: Challenge test in BHI broth, challenge bacteria overall; conditions: neutral pH (6.5 to 7.0) and 30° C.
Description: as §2, §3, §4, §5, §6, §7, §8

Escherichia coli = assay: Challenge test in BHI broth, single strain; conditions: for Bacterial growth (optical density 550 nm after 12 days): pH 5.6, 12° C.
Description: as §2, §3, §4, §5, §6, §7, §8

Bacillus cereus = assay: Challenge test in BHI broth, single strain; conditions: for Bacterial growth (optical density 550 nm after 12 days): pH 5.6, 12° C.
Description: as §2, §3, §4, §5, §6, §7, §8

Salmonella typhimurium = assay: Challenge test in BHI broth, single strain; conditions: for Bacterial growth (optical density 550 nm after 12 days): pH 5.6, 12° C.
Description: as §2, §3, §4, §5, §6, §7, §8

Listeria monocytogenes = assay: Challenge test in BHI broth, single strain; conditions: for Bacterial growth (optical density 550 nm after 12 days): pH 5.6, 12° C.
Description: as §2, §3, §4, §5, §6, §7, §8

[4] = tested on: Listeria monocytogenes strains; assay: Challenge test in mashed potato, L. monocytogenes cocktail; conditions: for Microbial growth: mashed potato pH 5.6, 0.5%, 12° C.
Description: as §1
To confirm the effectiveness of the two sources of sodium acetate against Listeria monocytogenes strains, another challenge experiment in mashed potato was performed.

[5] = 0.25% sodium acetate, pH 5.6, 30° C.
[6] = 0.25% sodium acetate, pH 7.0, 30° C.
[7] = 0.5% sodium acetate, pH 5.6, 30° C.
[8] = 0.5% sodium acetate, pH 7.0, 30° C.

## CC(=O)[O-].[Na+] [C, sodium acetate]
[1]; day 0
  Microbial growth: 4.6 Log10 cfu/g
[1]; day 2
  Microbial growth: 4.6 Log10 cfu/g
[1]; day 5
  Microbial growth: 4.5 Log10 cfu/g
[1]; day 7
  Microbial growth: 4.5 Log10 cfu/g
[1]; day 9
  Microbial growth: 4.1 Log10 cfu/g
[1]; mashed potato
  Inhibitory effectiveness on growth of Gram-negative cocktail (in words): inhibitory effectiveness
[2]; 0.25% sodium acetate
  Bacterial growth (optical density 550 nm after 12 days): 0.287
[2]; 0.5% sodium acetate
  Bacterial growth (optical density 550 nm after 12 days): 0.266
[2]; pH 5.6 and at 2° C. (so in the source), both concentrations
  Inhibition of the bacterial cocktail (in words): failed to inhibit
[3]
  Inhibition of the challenge bacteria (in words): neither commercial sodium acetate nor the fermentate inhibit
Escherichia coli; 0.25% sodium acetate
  Bacterial growth (optical density 550 nm after 12 days): 0.017
Escherichia coli; [5]
  Bacterial growth (optical density 550 nm after 24 hrs): 0.231
Escherichia coli; [6]
  Bacterial growth (optical density 550 nm after 24 hrs): 0.589
Escherichia coli; 0.5% sodium acetate
  Bacterial growth (optical density 550 nm after 12 days): 0.013
Escherichia coli; [7]
  Bacterial growth (optical density 550 nm after 24 hrs): 0.099
Escherichia coli; [8]
  Bacterial growth (optical density 550 nm after 24 hrs): 0.587
Escherichia coli; pH 5.6 and below
  Inhibitory effect on growth (in words): exhibited inhibitory effects
Bacillus cereus; 0.25% sodium acetate
  Bacterial growth (optical density 550 nm after 12 days): 0.017
Bacillus cereus; [5]
  Bacterial growth (optical density 550 nm after 24 hrs): 0.068
Bacillus cereus; [6]
  Bacterial growth (optical density 550 nm after 24 hrs): 0.325
Bacillus cereus; 0.5% sodium acetate
  Bacterial growth (optical density 550 nm after 12 days): 0.017
Bacillus cereus; [7]
  Bacterial growth (optical density 550 nm after 24 hrs): 0.042
Bacillus cereus; [8]
  Bacterial growth (optical density 550 nm after 24 hrs): 0.315
Bacillus cereus; pH 5.6 and below
  Inhibitory effect on growth (in words): exhibited inhibitory effects
Salmonella typhimurium; 0.25% sodium acetate
  Bacterial growth (optical density 550 nm after 12 days): 0.010
Salmonella typhimurium; [5]
  Bacterial growth (optical density 550 nm after 24 hrs): 0.089
Salmonella typhimurium; [6]
  Bacterial growth (optical density 550 nm after 24 hrs): 0.645
Salmonella typhimurium; 0.5% sodium acetate
  Bacterial growth (optical density 550 nm after 12 days): 0.013
Salmonella typhimurium; [7]
  Bacterial growth (optical density 550 nm after 24 hrs): 0.020
Salmonella typhimurium; [8]
  Bacterial growth (optical density 550 nm after 24 hrs): 0.600
Salmonella typhimurium; pH 5.6 and below
  Inhibitory effect on growth (in words): exhibited inhibitory effects
Listeria monocytogenes; 0.25% sodium acetate
  Bacterial growth (optical density 550 nm after 12 days): 0.212
Listeria monocytogenes; [5]
  Bacterial growth (optical density 550 nm after 24 hrs): 0.216
Listeria monocytogenes; [6]
  Bacterial growth (optical density 550 nm after 24 hrs): 0.429
Listeria monocytogenes; 0.5% sodium acetate
  Bacterial growth (optical density 550 nm after 12 days): 0.220
Listeria monocytogenes; [7]
  Bacterial growth (optical density 550 nm after 24 hrs): 0.063
Listeria monocytogenes; [8]
  Bacterial growth (optical density 550 nm after 24 hrs): 0.399
[4]; day 0
  Microbial growth: 3.1 Log10 cfu/g
[4]; day 2
  Microbial growth: 4.4 Log10 cfu/g
[4]; day 5
  Microbial growth: 4.3 Log10 cfu/g
[4]; day 7
  Microbial growth: 4.9 Log10 cfu/g
[4]; day 14
  Microbial growth: 7.5 Log10 cfu/g
[4]; mashed potato, 14 days of incubation at 12° C.
  Delay of growth of Listeria monocytogenes (in words): unable to delay the growth of this organism for more than a week
